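These data come from cells grown in 96-well plates and exposed to compound for 48 hours at five concentrations. GI50 is the concentration that inhibits growth by half. TGI is the concentration that stops growth completely.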

Among the test systems are A498 renal; A549 NSCLC; COLO 205 colon; HS 578T breast; LOX IMVI melanoma; MDA-MB-231 breast; OVCAR-5 ovarian; PC-3 prostate; T-47D breast; U251 CNS.
Holding throughout (assay): DTP human tumour cell line panel, 48 h

As to `O=S(=O)(NC1=NCCN1C(=S)SN1CCn2c1nsc2=S)c1cccc(OC(F)(F)F)c1`, the GI50 – broadly, the concentration at which growth is held to half of that of the control – in the experiment with A498 renal was 22.6 µM; in the experiment on A549 NSCLC, 17.4 µM; with COLO 205 colon, 13.3 µM; with HS 578T breast, 35.9 µM; in the experiment with LOX IMVI melanoma, 3.71 µM; in the experiment on MDA-MB-231 breast, 14.1 µM. Also, the GI50 is 16.4 µM with OVCAR-5 ovarian, 9.94 µM in the experiment with PC-3 prostate, 12.3 µM in the experiment with T-47D breast and 17.2 µM in the experiment on U251 CNS. The concentration for total growth inhibition (TGI) (commonly the concentration at which net growth stops) was 42 µM in the experiment on A498 renal; 44.8 µM with A549 NSCLC; greater than 100 µM in the experiment with COLO 205 colon; greater than 100 µM with HS 578T breast; 12.4 µM in the experiment on LOX IMVI melanoma; 35.4 µM in the experiment on MDA-MB-231 breast. Besides, the concentration for total growth inhibition (TGI) was found to be 30 µM with OVCAR-5 ovarian, 26.4 µM in the experiment on PC-3 prostate, 39.4 µM in the experiment on T-47D breast and 30.9 µM with U251 CNS.

Take `CN(c1ccc(C#N)c(Cl)c1)C1CCC(NC(=O)c2ccc(N3CCN(C4CN(c5ccc6c(c5)C(=O)N(C5CCC(=O)NC5=O)C6=O)C4)CC3)cc2)CC1` (stereo not given): the GI50 in the experiment on A498 renal is greater than 100 µM; in the experiment on A549 NSCLC, greater than 100 µM; with COLO 205 colon it was greater than 100 µM; in the experiment with HS 578T breast, greater than 100 µM; with LOX IMVI melanoma it was greater than 100 µM; with MDA-MB-231 breast it was 18.9 µM. The GI50 in the experiment on OVCAR-5 ovarian was 47.6 µM; in the experiment on PC-3 prostate, greater than 100 µM; with T-47D breast, greater than 100 µM; with U251 CNS, 61.2 µM. The TGI is greater than 100 µM in the experiment on A498 renal; greater than 100 µM in the experiment with A549 NSCLC; greater than 100 µM in the experiment on COLO 205 colon; greater than 100 µM in the experiment on HS 578T breast; greater than 100 µM with LOX IMVI melanoma; 41.6 µM in the experiment on MDA-MB-231 breast. Moreover, the total growth inhibition concentration (TGI) with OVCAR-5 ovarian, with PC-3 prostate, in the experiment with T-47D breast and in the experiment on U251 CNS was greater than 100 µM in each case.

Regarding `CN1CCN(c2cc3nc4ccccc4n(-c4ccc(Cl)cc4)c-3cc2=N)CC1`, the GI50 is greater than 100 µM in the experiment with A498 renal; 24.1 µM in the experiment on A549 NSCLC; greater than 100 µM in the experiment on COLO 205 colon; 20.7 µM with HS 578T breast; 15.7 µM with LOX IMVI melanoma; 10.6 µM with MDA-MB-231 breast. The GI50 in the experiment with OVCAR-5 ovarian is 24.1 µM; in the experiment with PC-3 prostate, 16.1 µM; with T-47D breast, greater than 100 µM; with U251 CNS, 18.9 µM. For the same compound, the concentration for total growth inhibition (TGI) was greater than 100 µM in the experiment with A498 renal; 60.8 µM in the experiment on A549 NSCLC; greater than 100 µM in the experiment with COLO 205 colon; 95.7 µM in the experiment with HS 578T breast; 36.6 µM with LOX IMVI melanoma; 49.9 µM in the experiment on MDA-MB-231 breast. The TGI was 60.8 µM in the experiment with OVCAR-5 ovarian, 86.8 µM in the experiment on PC-3 prostate, greater than 100 µM in the experiment on T-47D breast and 49.7 µM in the experiment on U251 CNS.

For the compound `O=NN(CCCl)C(=O)NC1CCC(=O)NC1=O` (stereo not given), the TGI with A498 renal is 470 µM; in the experiment with A549 NSCLC, 811 µM; in the experiment with COLO 205 colon, 684 µM; in the experiment on HS 578T breast it was 1100 µM; in the experiment on LOX IMVI melanoma, 279 µM; with MDA-MB-231 breast, 674 µM. Moreover, the TGI is greater than 1210 µM in the experiment with OVCAR-5 ovarian, greater than 1250 µM in the experiment with PC-3 prostate, 892 µM in the experiment on T-47D breast and 305 µM with U251 CNS.

For the origin of these results see PubChem BioAssay (NCI).
